The source of these data is BindingDB's records for doi:10.1021/jm00028a001 (University of Pennsylvania, 1994).

In the experiment the target is T1, Dimer of Gag-Pol polyprotein [489-587] (Human immunodeficiency virus 1, UniProt P12497).
T1 construct: 489-587
Description: Protease Inhibition Assay. Conditions: pH 5.5; 30 °C. The method, then: Sensitivity of HIV-1 protease activity to protease inhibitors was determined by a peptide substrate cleavage assay. Protease products were analyzed on a reverse-phase high-pressure liquid chromatograph.

`CCC(C)[C@@H]1NC(=O)[C@@H](NC[C@@H](O)[C@H](Cc2ccc(O)cc2)NC(=O)[C@H](C(C)C)N2CCCC2=O)Cc2ccc(cc2)OCCCNC1=O` (stereo partly drawn) [(2S)-N-[(2S,3R)-4-{[(8S,11S)-8-[(2R)-butan-2-yl]-7,10-dioxo-2-oxa-6,9-diazabicyclo[11.2.2]heptadeca-1(15),13,16-trien-11-yl]amino}-3-hydroxy-1-(4-hydroxyphenyl)butan-2-yl]-3-methyl-2-(2-oxopyrrolidin-1-yl)butanamide] yielded an IC50 of 10 nM.

For `CC(C)C[C@@]1(C2C=N[C@@](Cc3ccccc3)(C[C@H](O)[C@H](Cc3ccccc3)NC(=O)O[C@@H]3CCOC3)C2=O)N=CC([C@@H](Cc2ccccc2)C(N)=O)C1=O` (stereo partly drawn) [(3R)-oxolan-3-yl N-[(2S,3S)-4-[(2S)-2-benzyl-4-[(2S)-4-[(1R)-1-carbamoyl-2-phenylethyl]-2-(2-methylpropyl)-3-oxo-2,3-dihydro-1H-pyrrol-2-yl]-3-oxo-2,3-dihydro-1H-pyrrol-2-yl]-3-hydroxy-1-phenylbutan-2-yl]carbamate], the IC50 came to 1.3 nM.

Compound `CC(C)(C)NC(=O)[C@@H]1CCCCN1C[C@@H](O)[C@@H]1Cc2ccc(cc2)OCCCC(=O)N[C@@H](CC(N)=O)C(=O)N1` [Peptidomimetic inhibitor 4] returned an IC50 of 0.6 nM.
